Source: patent US12275731B2, “Azaindole inhibitors of wild-type and mutant forms of LRRK2” (DANA-FARBER CANCER INSTITUTE, INC., priority 2018, dated 2025)
pIC50: −log10 of the molar value. Read-outs that look alike come from different tables or passages of the source.

Columns and labels:
LRRK2 WT enzyme = biological target: T1, LRRK2 WT enzyme (Homo sapiens, UniProt Q5S007); test: LRRK2 wild type kinase inhibition assay (ADP-Glo); type: biochemical; conditions: for IC50: Table 1, read-out: IC50 (nM) LRRK2 wt; for pIC50: Table 2, class symbols, read-out: Enzyme activity against LRRK2 WT (IC50)
T1 construct: purchased Thermo Fisher Scientific PR8604B
T1 sequence (Q5S007 970-2527 limits assumed): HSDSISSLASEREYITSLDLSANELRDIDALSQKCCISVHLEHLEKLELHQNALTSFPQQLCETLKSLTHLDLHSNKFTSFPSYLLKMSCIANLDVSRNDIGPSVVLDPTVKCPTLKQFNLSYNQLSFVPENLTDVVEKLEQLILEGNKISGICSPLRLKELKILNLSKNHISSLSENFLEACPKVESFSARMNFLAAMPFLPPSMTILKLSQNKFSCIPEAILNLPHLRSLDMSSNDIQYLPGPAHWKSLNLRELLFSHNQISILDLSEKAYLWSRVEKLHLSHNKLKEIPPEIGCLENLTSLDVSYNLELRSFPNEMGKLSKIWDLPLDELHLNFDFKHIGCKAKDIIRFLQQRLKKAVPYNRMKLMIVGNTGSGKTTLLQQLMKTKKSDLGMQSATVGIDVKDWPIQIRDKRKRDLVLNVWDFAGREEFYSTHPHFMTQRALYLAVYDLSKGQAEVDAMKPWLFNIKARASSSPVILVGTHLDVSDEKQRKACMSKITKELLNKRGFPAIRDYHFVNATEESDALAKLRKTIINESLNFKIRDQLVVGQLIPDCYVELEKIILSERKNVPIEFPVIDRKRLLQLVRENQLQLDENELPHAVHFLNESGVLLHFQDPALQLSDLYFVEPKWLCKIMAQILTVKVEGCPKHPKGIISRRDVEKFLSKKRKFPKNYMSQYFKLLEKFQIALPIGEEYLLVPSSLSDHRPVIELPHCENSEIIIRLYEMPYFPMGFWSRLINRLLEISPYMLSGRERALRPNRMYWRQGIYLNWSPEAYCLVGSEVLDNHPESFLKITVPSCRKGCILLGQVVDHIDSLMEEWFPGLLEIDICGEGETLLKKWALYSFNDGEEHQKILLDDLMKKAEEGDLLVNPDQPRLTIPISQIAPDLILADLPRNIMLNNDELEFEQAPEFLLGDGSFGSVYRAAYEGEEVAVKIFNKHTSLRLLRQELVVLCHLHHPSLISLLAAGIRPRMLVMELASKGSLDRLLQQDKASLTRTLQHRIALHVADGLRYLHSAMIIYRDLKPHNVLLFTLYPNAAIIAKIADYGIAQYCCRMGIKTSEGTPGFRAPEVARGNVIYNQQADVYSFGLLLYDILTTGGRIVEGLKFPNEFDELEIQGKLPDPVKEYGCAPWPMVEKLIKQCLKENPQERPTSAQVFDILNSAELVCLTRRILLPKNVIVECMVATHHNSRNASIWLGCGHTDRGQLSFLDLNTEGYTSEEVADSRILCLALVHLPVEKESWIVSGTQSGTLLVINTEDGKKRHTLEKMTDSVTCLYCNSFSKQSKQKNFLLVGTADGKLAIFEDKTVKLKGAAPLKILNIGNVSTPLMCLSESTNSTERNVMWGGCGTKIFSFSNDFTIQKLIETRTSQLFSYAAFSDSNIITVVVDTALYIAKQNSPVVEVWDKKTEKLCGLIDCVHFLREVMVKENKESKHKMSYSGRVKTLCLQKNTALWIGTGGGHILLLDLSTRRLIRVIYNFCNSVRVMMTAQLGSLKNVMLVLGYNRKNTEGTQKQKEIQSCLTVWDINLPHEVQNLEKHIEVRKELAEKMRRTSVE
Experimental: (§1) IC50 experiments were performed for inventive compounds. An exemplary kit to perform this assay includes the Adapta™ Screening Protocol and Assay Conditions by Invitrogen™ (Fisher Scientific™, Catalog No. PV5099).
(§2) All LRRK2 kinase inhibition assays were conducted by using Promega ADP-Glo™ Kinase assay systems (Catalog number; V4475). Inhibitors were tested with 12 concentrations over a 5-fold serial dilution series (50 μM, 10 μM, 2 μM, 400 nM, 80 nM, 16 nM, 3.2 nM, […]) and PF06447475 as positive control. For the LRRK2 wild type (WT) enzyme assay, each inhibitor was mixed with 0.2 μg/μL of substrate (LRRKtide, SignalChem, Richmond, BC, Canada), […] (Invitrogen™, Carlsbad, CA), 24 ng of LRRK2 WT enzyme (Thermo Fisher Scientific, PR8604B) in 384-well plate. For LRRK G2019S, each compound was mixed with 0.2 μg/μL of substrate, […], 16 ng of LRRK2 G2019S enzyme (SignalChem, L10-12GG). All samples were diluted with kinase reaction buffer (40 mmol/L TrisHCl, 10 mmol/L MgCl2, and 0.1 μg/μL BSA (bovine serum albumin)). After 2 hours at 25° C., ADP-Glo™ (Promega, Madison, WI) reagent was added and the samples were incubated at rt for 40 min. Finally, Kinase Detection Reagent was added and the resulting mixtures were allowed to react at rt for 10 min. Luminescence signals were detected using Synergy™ Neo2 microplate reader (Bio-Tek). Compound inhibition curve was fitted using Graphpad Prism 8.0 software.

LRRK2(G2019S) = LRRK2(G2019S) (Homo sapiens, UniProt Q5S007, G2019S); test: LRRK2 G2019S kinase inhibition assay (ADP-Glo); type: biochemical; parameters: purchased SignalChem L10-12GG; conditions: for IC50: Table 1, read-out: IC50 (nM) LRRK2 G2019S; for pIC50: Table 2, class symbols, read-out: Enzyme activity against LRRK2 G2019S (IC50)
LRRK2(G2019S), sequence (Q5S007 970-2527 G2019S limits assumed): as the sequence (Q5S007 970-2527 limits assumed) above, with G1050S counted along it
Experimental: as §1, §2

Row | Structure (SMILES) | IC50 (LRRK2 WT enzyme) [nM] | IC50 (LRRK2(G2019S)) [nM] | pIC50 (LRRK2 WT enzyme) | pIC50 (LRRK2(G2019S))
1 | CCc1cc(-c2cnc3[nH]cc(Cl)c3c2NC)nn1C [Compound 9, 3-chloro-5-(5-ethyl-1-methyl-1H-pyrazol-3-yl)-N-methyl-1H-pyrrolo[2,3-b]pyridin-4-amine] | 36.6 | 83.1 | – | –
2 | CCc1cc(-c2cnc3[nH]cc(Cl)c3c2NC(C)C)nn1C [Compound 10, 3-chloro-5-(5-ethyl-1-methyl-1H-pyrazol-3-yl)-N-isopropyl-1H-pyrrolo[2,3-b]pyridin-4-amine] | 259 | 523 | – | –
3 | CC(C)Nc1c(-c2ccn(C)n2)cnc2[nH]cc(Cl)c12 [Compound 12, 3-chloro-N-isopropyl-5-(1-methyl-1H-pyrazol-3-yl)-1H-pyrrolo[2,3-b]pyridin-4-amine] | 136 | 514 | – | –
4 | CNc1c(-c2cn(C3CCOCC3)nc2C2CC2)cnc2[nH]cc(Cl)c12 [Compound 13, 3-chloro-5-(3-cyclopropyl-1-(tetrahydro-2H-pyran-4-yl)-1H-pyrazol-4-yl)-N-methyl-1H-pyrrolo[2,3-b]pyridin-4-amine] | 3600 | > 10000 | – | –
5 | CNc1c(-c2nn(C)c3ccc(OC)cc23)cnc2[nH]cc(Cl)c12 [Compound 15, 3-(3-chloro-4-(methylamino)-1H-pyrrolo[2,3-b]pyridin-5-yl)-5-methoxy-1-methyl-1H-indazole] | 140 | 397 | – | –
6 | CNc1c(-c2c3cc(OC)ccc3nn2C)cnc2[nH]cc(Cl)c12 [Compound 16, 3-chloro-5-(5-methoxy-2-methyl-2H-indazol-3-yl)-N-methyl-1H-pyrrolo[2,3-b]pyridin-4-amine] | 6230 | > 10000 | – | –
7 | CC(C)Nc1c(-c2ccc(C(=O)N3CCC(N4CCOCC4)CC3)cc2)cnc2[nH]ccc12 [Compound 54, (4-(4-(isopropylamino)-1H-pyrrolo[2,3-b]pyridin-5-yl)phenyl)(4-morpholinopiperidin-1-yl)methanone] | – | – | 7.00 to 8.00 | 7.00 to 8.00
8 | COCCNc1c(-c2cnn([C@H]3CCN(C(C)=O)C[C@@H]3F)c2)cnc2[nH]cc(Cl)c12 [Compound 81, 1-((3S,4S)-4-(4-(3-chloro-4-((2-methoxyethyl)amino)-1H-pyrrolo[2,3-b]pyridin-5-yl)-1H-pyrazol-1-yl)-3-fluoropiperidin-1-yl)ethan-1-one] | – | – | 7.00 to 8.00 | < 7.00
9 | CNc1c(-c2ccc(C(=O)N3CCOCC3)cc2)cnc2[nH]cc(Cl)c12 [Compound 90, (4-(3-chloro-4-(methylamino)-1H-pyrrolo[2,3-b]pyridin-5-yl)phenyl)(morpholino)methanone] | – | – | > 8.00 | > 8.00
10 | CCNc1c(-c2ccc(C(=O)N3CCOCC3)cc2)cnc2[nH]cc(Cl)c12 [Compound 91, (4-(3-chloro-4-(ethylamino)-1H-pyrrolo[2,3-b]pyridin-5-yl)phenyl)(morpholino)methanone] | – | – | 7.00 to 8.00 | 7.00 to 8.00
11 | O=C(c1ccc(-c2cnc3[nH]cc(Cl)c3c2NC2CC2)cc1)N1CCOCC1 [Compound 93, (4-(3-chloro-4-(cyclopropylamino)-1H-pyrrolo[2,3-b]pyridin-5-yl)phenyl)(morpholino)methanone] | – | – | 7.00 to 8.00 | 7.00 to 8.00
12 | CCNc1c(-c2ccc(C(=O)N3CCC(N4CCOCC4)CC3)cc2)cnc2[nH]cc(Cl)c12 [Compound 97, (4-(3-chloro-4-(ethylamino)-1H-pyrrolo[2,3-b]pyridin-5-yl)phenyl)(4-morpholinopiperidin-1-yl)methanone] | – | – | > 8.00 | 7.00 to 8.00
13 | O=C(c1ccc(-c2cnc3[nH]cc(Cl)c3c2NC2CC2)cc1)N1CCC(N2CCOCC2)CC1 [Compound 99, (4-(3-chloro-4-(cyclopropylamino)-1H-pyrrolo[2,3-b]pyridin-5-yl)phenyl)(4-morpholinopiperidin-1-yl)methanone] | – | – | 7.00 to 8.00 | < 7.00

Other lines, results leading:

Row | IC50 (LRRK2 WT enzyme) [nM] | IC50 (LRRK2(G2019S)) [nM] | pIC50 (LRRK2 WT enzyme) | pIC50 (LRRK2(G2019S)) | Structure (SMILES)
14 | 544 | 326 | – | – | CNc1c(-c2cnn(C(C)(C)C#N)c2)cnc2[nH]ccc12 [Compound 1, 2-methyl-2-(4-(4-(methylamino)-1H-pyrrolo[2,3-b]pyridin-5-yl)-1H-pyrazol-1-yl)propanenitrile]
15 | 891 | 825 | – | – | CNc1c(-c2cnn(C3CCN(C)CC3)c2)cnc2[nH]ccc12 [Compound 2, N-methyl-5-(1-(1-methylpiperidin-4-yl)-1H-pyrazol-4-yl)-1H-pyrrolo[2,3-b]pyridin-4-amine]
16 | 264 | 164 | – | – | CNc1c(-c2cnn(C3CCOCC3)c2)cnc2[nH]ccc12 [Compound 3, N-methyl-5-(1-(tetrahydro-2H-pyran-4-yl)-1H-pyrazol-4-yl)-1H-pyrrolo[2,3-b]pyridin-4-amine]
17 | 15 | 14 | – | – | CNc1c(-c2cnn(C(C)(C)C#N)c2)cnc2[nH]cc(Cl)c12 [Compound 4, 2-(4-(3-chloro-4-(methylamino)-1H-pyrrolo[2,3-b]pyridin-5-yl)-1H-pyrazol-1-yl)-2-methylpropanenitrile]
18 | 22 | 20 | – | – | CNc1c(-c2cnn(C3CCN(C)CC3)c2)cnc2[nH]cc(Cl)c12 [Compound 5, 3-chloro-N-methyl-5-(1-(1-methylpiperidin-4-yl)-1H-pyrazol-4-yl)-1H-pyrrolo[2,3-b]pyridin-4-amine]
19 | 10 | 15 | – | – | CNc1c(-c2cnn(C3CCOCC3)c2)cnc2[nH]cc(Cl)c12 [Compound 6, 3-chloro-N-methyl-5-(1-(tetrahydro-2H-pyran-4-yl)-1H-pyrazol-4-yl)-1H-pyrrolo[2,3-b]pyridin-4-amine]
20 | 38 | 26 | – | – | CNc1c(C(F)(F)F)cnc2[nH]cc(-c3cnn(C(C)(C)C#N)c3)c12 [Compound 7, 2-methyl-2-(4-(4-(methylamino)-5-(trifluoromethyl)-1H-pyrrolo[2,3-b]pyridin-3-yl)-1H-pyrazol-1-yl)propanenitrile]
21 | 103 | 61 | – | – | CNc1c(C(F)(F)F)cnc2[nH]cc(-c3cnn(C4CCN(C)CC4)c3)c12 [Compound 8, N-methyl-3-(1-(1-methylpiperidin-4-yl)-1H-pyrazol-4-yl)-5-(trifluoromethyl)-1H-pyrrolo[2,3-b]pyridin-4-amine]
22 | 8.4 | 30.9 | – | – | CNc1c(-c2ccn(C)n2)cnc2[nH]cc(Cl)c12 [Compound 11, 3-chloro-N-methyl-5-(1-methyl-1H-pyrazol-3-yl)-1H-pyrrolo[2,3-b]pyridin-4-amine]
23 | 95.2 | 305 | – | – | CNc1c(-c2nn(C)c3ccc(C#N)cc23)cnc2[nH]cc(Cl)c12 [Compound 14, 3-(3-chloro-4-(methylamino)-1H-pyrrolo[2,3-b]pyridin-5-yl)-1-methyl-1H-indazole-5-carbonitrile]
24 | – | – | 7.00 to 8.00 | 7.00 to 8.00 | F[C@H]1CN(C2COC2)CC[C@@H]1n1cc(-c2cnc3[nH]ccc3c2NC2CCCC2)cn1 [Compound 31, N-cyclopentyl-5-(1-((3S,4S)-3-fluoro-1-(oxetan-3-yl)piperidin-4-yl)-1H-pyrazol-4-yl)-1H-pyrrolo[2,3-b]pyridin-4-amine]
25 | – | – | 7.00 to 8.00 | 7.00 to 8.00 | CC(=O)N1CC[C@H](n2cc(-c3cnc4[nH]ccc4c3NC3CCCC3)cn2)[C@@H](F)C1 [Compound 38, 1-((3S,4S)-4-(4-(4-(cyclopentylamino)-1H-pyrrolo[2,3-b]pyridin-5-yl)-1H-pyrazol-1-yl)-3-fluoropiperidin-1-yl)ethan-1-one]
26 | – | – | 7.00 to 8.00 | 7.00 to 8.00 | CC(C)Nc1c(-c2ccc(C(=O)N3CCOCC3)cc2)cnc2[nH]ccc12 [Compound 48, (4-(4-(isopropylamino)-1H-pyrrolo[2,3-b]pyridin-5-yl)phenyl)(morpholino)methanone]
27 | – | – | 7.00 to 8.00 | 7.00 to 8.00 | CNc1c(-c2cnn([C@H]3CCN(C4COC4)C[C@@H]3F)c2)cnc2[nH]cc(Cl)c12 [Compound 70, 3-chloro-5-(1-((3S,4S)-3-fluoro-1-(oxetan-3-yl)piperidin-4-yl)-1H-pyrazol-4-yl)-N-methyl-1H-pyrrolo[2,3-b]pyridin-4-amine]
28 | – | – | 7.00 to 8.00 | 7.00 to 8.00 | CCNc1c(-c2cnn([C@H]3CCN(C(C)=O)C[C@@H]3F)c2)cnc2[nH]cc(Cl)c12 [Compound 78, 1-((3S,4S)-4-(4-(3-chloro-4-(ethylamino)-1H-pyrrolo[2,3-b]pyridin-5-yl)-1H-pyrazol-1-yl)-3-fluoropiperidin-1-yl)ethan-1-one]
